Experimental data: patent US9719981B2, “RAC1 inhibitors for the treatment of alport glomerular disease” (Father Flanagan's Boys' Home, priority 2012, dated 2017)
Read-outs that look alike come from different tables or passages of the source.

Tests used:
[1] = test system: 129 Sv/J autosomal Alport mice; type: in vivo
Description: Immunofluorescence microscopy. Fresh frozen kidneys were sectioned at 8-μm and acetone fixed. Sections were incubated overnight at 4° C. in primary antibody solution. The dual stain consisting of rat anti-mouse Laminin-α2 antibody (Sigma-Aldrich, St. Louis, Mo.) at 1:200 and rabbit anti-mouse phospho-FAK 397 antibody at 1:25 as well as the dual stain of goat anti-mouse Integrin α8 antibody (R & D Systems, Minneapolis, Minn.) at 1:1000 and rabbit anti-mouse Laminin-5 antibody, at 1:1000 were diluted in 0.3% PBST+5% FBS. Rabbit anti-mouse Fibronectin antibody at 1:300 and rat anti-mouse CD11b antibody at 1:100 were diluted in 7% Milk. Slides were rinsed with 1×PBS and incubated with the appropriate Alexa Fluor donkey secondary antibodies at 1:300 for 1 hour at room temperature. They were then rinsed again with 1×PBS and mounted with Vectashield Mounting Medium with DAPI (Vector, Burlingame, Calif.). The dual stain of mouse-anti rat Laminin α1 antibody at 1:300 and rabbit anti-mouse phospho-FAK 397 antibody at 1:25 were diluted in 0.3% PBST+5% NGS and incubated overnight at 4° C. Slides were rinsed with 1×PBS and incubated with the appropriate Alexa Fluor goat secondary antibodies at 1:300 for 1 hour at room temperature. They were then rinsed again with 1×PBS and mounted with Vectashield Mounting Medium with DAPI.
Real time qRT-PCR. Total RNA was reverse transcribed using […]® III (Invitrogen, Life Technologies, Grand Island, N.Y.) with Oligo(dT)20 Primer (Invitrogen). The real time PCR was carried out using TAQMAN® Gene Expression Master Mix (Applied Biosystems, Life Technologies, Grand Island, N.Y.), and quantified using STEPONEPLUS™ Real-Time PCR System (Applied Biosystems). Samples were normalized to Mouse GAPDH Endogenous Control VIC® Probe (Applied Biosystems catalogue #4352339E) which was run alongside MMP-9 (Catalog #4331182, ID# Mm00442991_m1), MMP-10 (Catalog #4331182, ID# Mm00444630_m1), MMP-12 (Catalog #4331182, ID# Mm00500554_m1), IL-6 (Catalog #4331182, ID# Mm00446190_m1), NFKbia (Catalog #4331182, ID# Mm00477798_m1), and FAK (Catalog #4331182, ID# Mm00433209_m1) TAQMAN® Gene Expression Assay Probes (Applied Biosystems). Samples were run in triplicate with a final reaction volume of 20 ul with the following cycling parameters: 50° C. for 2 min, 95° C. for 10 min, followed by 40 cycles of a two-step PCR consisting of 95° C. for 15 s and 60° C. for 1 min. Relative changes in gene expression were determined by calculating the fold change using the comparative CT method of 2^−ΔΔCT. Data are expressed as the mean with standard deviation for at least four independent RNA samples per data point.
Treatment of mice with TAE226. Four Col 4A3 knockout mice from 129 Sv/J background were given 50 mg/Kg TAE226 (ChemScene, LLC Monmouth Junction, N.J.) 1× daily by gavage needle starting at two weeks of age until seven weeks old. The TAE226 was diluted in a 0.5% carboxy methyl cellulose suspension. Three control Col 4a3 knockout mice of the same age were given 0.5% CMC suspension alone and served as controls.
Albumin and creatinine assays. Urine was collected weekly and albumin concentrations were analyzed as instructed using a mouse albumin ELISA kit #MSAKT from Molecular Innovations (Novi, Mich.). Albumin levels were normalized to creatinine using QuantiChrom Creatinine Assay Kit (DICT-500) (BioAssay Systems, Hayward, Calif.) as instructed.
Transmission electron microscopy. Transmission electron microscopy was performed as described previously (Cosgrove et al., 2000, Am J Pathol; 157: 1649-1659).

[2] = test system: primary cultured mesangial cells; experiment: Transwell Migration Assay of primary mesangial cells with TAE226; type: cell-based, mouse; conditions: 0.5 μM TAE226; relative to untreated cells
Description: MES Migration (insert). Transwell cell migration assays were performed as described by Daniel et al. (Daniel et al., 2012, Lab Invest; 92(6): 812-26) with some modifications. 8 micron, 24-well plate control inserts (BD Bioscience, Bedford, Mass.) were coated overnight at 4° C. with 100 μl of 0.1% gelatin/PBS then washed 1× with PBS. MES cultures were incubated in 1% FCS overnight, then 0.05% BSA-containing media for at least 8 hours, washed 1× with PBS and carefully tryspinized to ensure a single cell suspension and limited “clumping” of cells. After serum-neutralization and subsequent centrifugation, ˜100,000 cells were resuspended in 1.5 mls of 0.05% BSA media containing activators/inhibitors. The wells of a 24-well plate were filled with 0.75 mls of 10% FCS-containing media plus activators/inhibitors (excluding 0.05% BSA control well). 0.5 ml of cell-suspension was loaded into the gelatin-coated insert and the insert placed in a well. Wells were visually inspected for bubbles beneath insert and equal distribution of cell-suspension. Cells were allowed to migrate overnight (˜18 hrs). […] Inserts were air dried and counted at 100× magnification. Five fields were counted on each insert including one center and four periphery areas. Data was expressed as relative to 10% FCS control well (set equal to one). […]

[3] = 50 mg/Kg daily, 2 to 7 weeks, relative to vehicle
[4] = at 6 weeks of age, relative to vehicle
[5] = by 7 weeks of age, relative to vehicle

For CNC(=O)c1ccccc1Nc1nc(Nc2ccc(N3CCOCC3)cc2OC)ncc1Cl [TAE226], the “pFAK immunostaining in podocytes in vivo” value ([1]; 50 mg/Kg 1× daily by gavage, two to seven weeks of age) was “abolished”, the “Glomerular mRNA expression level of MMP-9” value [1, 3] was “significantly reduced” and the “Glomerular mRNA expression level of MMP-10” value [1, 3] was “significantly reduced”. For the same compound, the “Glomerular mRNA expression level of MMP-12” value [1, 3] was “significantly reduced”, the “Monocytic infiltration (CD11b immunostaining)” value ([1]; 7 weeks of age) was “remarkably robust reduction” and the “Renal scarring (fibronectin immunostaining)” value ([1]; 7 weeks of age) was “remarkably robust reduction”. For the same compound, the “GBM architecture (transmission electron microscopy)” value ([1]; 7 weeks of age, relative to vehicle) was “markedly improved”, the Glomerulosclerosis ([1]; Alport mice) was “ameliorated” and the “Blood urea nitrogen levels” value [1, 4] was “significant reduction”. The Proteinuria [1, 4] was “significant reduction”, the “Blood urea nitrogen levels” value [1, 5] was “loose significance” and the Proteinuria [1, 5] was “loose significance”. For the same compound, the “Mesangial process invasion of glomerular capillary loops” value ([1]; integrin α8 / laminin α5 immunostaining, vs vehicle) was “amelioration” and the “Cell migratory potential of mesangial cells” value [2] was “significantly reduced”.
